According to patent publication US12630530B2, “FGFR inhibitor compound and use thereof” (HENAN MEDINNO PHARMACEUTICAL TECHNOLOGY CO., LTD., priority 2020, dated 2026):

Legend:
Type in all cases: biochemical
FGFR1 V561M = target: T1, FGFR1 V561M (Homo sapiens, UniProt P11362, V561M); assay: Assay I: inhibitory activity against FGFR mutants (HTRF KinEASE-TK); details: Table 1; ATP working concentration 5 μM, substrate TK 1 μM
T1 construct: purchased Signalchem F04-13G
Experimental: (§1) Assay I: Determination of Inhibitory Activity Against FGFR Mutants
(§2) 1×Kinase reaction buffer was formulated with 1×volume of 5× kinase reaction buffer and 4×volume of water; 5 mM MgCl2; and 1 mM DTT.
(§3) 2.3 Screening of Compounds: • 1. […] Adding 1 μl of the compound diluted in buffer to each well, sealing the plate with a sealing membrane and centrifuging the plate at 1000 g for 30 seconds and leaving it at room temperature for 10 minutes. • 6. Formulating 2.5×TK-substrate-biotin and ATP mixture with 1× enzyme reaction buffer and adding 2 μl of K-substrate-biotin/ATP mixture to the reaction plate. • 7. Sealing the plate with a sealing membrane and centrifuging the plate at 1000 g for 30 seconds and allowing it to react at room temperature for 50 minutes. • 8. […] 3. Data Analysis
(§4) 3.3 Calculation of IC50 and plotting of inhibition curves for the compounds.
(§5) The IC50 (half inhibition concentration) of a compound was obtained using the following non-linear fitting equation, wherein data analysis was performed using Graphpad 6.0 software.
(§6) Data were exported from Envision and analyzed manually. The ratios were converted to inhibition rates and IC50 was calculated by Prism GraphPad 6.0 from the inhibition rates. IC50 was calculated again by the ratios to verify accuracy of the results.

FGFR3 K650E = FGFR3 K650E (Homo sapiens, UniProt P22607, K650E); assay: as above; details: Table 1; ATP working concentration 50 μM, substrate TK 1 μM
Experimental: as §1, §2, §3, §4, §5, §6

FGFR2 V564F = target: T2, FGFR2 V564F (Homo sapiens, UniProt P21802, V564F); assay: as above; details: Table 1; ATP working concentration 10 μM, substrate TK 1 μM
T2 construct: purchased Signalchem F05-12FG
Experimental: as §1, §2, §3, §4, §5, §6

FGFR3 V555M = target: T3, FGFR3 V555M (Homo sapiens, UniProt P22607, V555M); assay: as above; details: Table 1; ATP working concentration 20 μM, substrate TK 1 μM
T3 construct: purchased Signalchem F06-12GG
Experimental: as §1, §2
2.3 Screening of Compounds: • 1. Diluting a compound 4-fold in a dilution plate with DMSO, with a starting compound concentration of 2 mM (4 mM for Nentedanib). • 2. Diluting the compound 40-fold into 1× kinase reaction buffer and shaking it on a shaker for 20 minutes. • 3. […] Adding 1 μl of the compound diluted in buffer to each well, sealing the plate with a sealing membrane and centrifuging the plate at 1000 g for 30 seconds and leaving it at room temperature for 10 minutes. • 6. Formulating 2.5×TK-substrate-biotin and ATP mixture with 1× enzyme reaction buffer and adding 2 μl of K-substrate-biotin/ATP mixture to the reaction plate. • 7. Sealing the plate with a sealing membrane and centrifuging the plate at 1000 g for 30 seconds and allowing it to react at room temperature for 50 minutes. • 8. Formulating 4×Sa-XL 665 (250 nM) with HTRF assay buffer. • 9. Adding 5 μl Sa-XL 665 and 5 μl TK-Antibody-Cryptate to each well, centrifuging it at 1000 g for 30 seconds, and allowing it to react for 1 hour at room temperature. • 10. Reading fluorescence signals at 615 nm (Cryptate) and 665 nm (XL665) with Biotek. 3. Data Analysis
3.1 Calculation of the ratio for each well: the ratio was calculated as 665/615 nm.
as §4, §5, §6

VEGFR2 = target: T4, VEGFR2 (Homo sapiens, UniProt P35968); assay: Assay I: kinase inhibition (HTRF KinEASE-TK), VEGFR2; details: Table 1; ATP working concentration 5 μM, substrate TK 1 μM
T4 construct: purchased Carna 08-191

FGFR2 = target: T5, FGFR2 (Homo sapiens, UniProt P21802); assay: Assay II: inhibitory activity against wild-type FGFR (HTRF KinEASE-TK); details: Table 2, ATP working concentration 50 μM, substrate TK 1 μM
T5 construct: purchased Carna 08-134
Experimental: (§7) Assay II: Determination of inhibitory activity against wild-type FGFR
as §2
(§8) 3. Formulating 2×FGFR1/FGFR2/FGFR3 with 1× of enzyme reaction buffer.
(§9) 4. Adding 2 μl FGFR1/FGFR2/FGFR3 kinase (formulated in step 3) to each well of the reaction plate.
(§10) 5. Adding 1 μl of the compound diluted in buffer to each well, sealing the plate with a sealing membrane and centrifuging the plate at 1000 g for 30 seconds and leaving it at room temperature for 10 minutes.
(§11) 6. Formulating 2.5×TK-substrate-biotin and ATP mixture with 1× enzyme reaction buffer and adding 2 μl of K-substrate-biotin/ATP mixture to the reaction plate.
(§12) 7. Sealing the plate with a sealing membrane and centrifuging the plate at 1000 g for 30 seconds and allowing it to react at room temperature for 50 minutes.
as §4, §5, §6

FGFR1 = target: T6, FGFR1 (Homo sapiens, UniProt P11362); assay: as above; details: Table 2, ATP working concentration 50 μM, substrate TK 1 μM
T6 construct: purchased Carna 08-133
Experimental: as §7, §2, §8, §9, §10, §11, §12, §4, §5, §6

FGFR3 = target: T7, FGFR3 (Homo sapiens, UniProt P22607); assay: as above; details: Table 2, ATP working concentration 50 μM, substrate TK 1 μM
T7 construct: purchased Carna 08-135
Experimental: as §7, §2, §8, §9, §10, §11, §12, §4, §5, §6

T3 sequence (P22607 23-806 V555M): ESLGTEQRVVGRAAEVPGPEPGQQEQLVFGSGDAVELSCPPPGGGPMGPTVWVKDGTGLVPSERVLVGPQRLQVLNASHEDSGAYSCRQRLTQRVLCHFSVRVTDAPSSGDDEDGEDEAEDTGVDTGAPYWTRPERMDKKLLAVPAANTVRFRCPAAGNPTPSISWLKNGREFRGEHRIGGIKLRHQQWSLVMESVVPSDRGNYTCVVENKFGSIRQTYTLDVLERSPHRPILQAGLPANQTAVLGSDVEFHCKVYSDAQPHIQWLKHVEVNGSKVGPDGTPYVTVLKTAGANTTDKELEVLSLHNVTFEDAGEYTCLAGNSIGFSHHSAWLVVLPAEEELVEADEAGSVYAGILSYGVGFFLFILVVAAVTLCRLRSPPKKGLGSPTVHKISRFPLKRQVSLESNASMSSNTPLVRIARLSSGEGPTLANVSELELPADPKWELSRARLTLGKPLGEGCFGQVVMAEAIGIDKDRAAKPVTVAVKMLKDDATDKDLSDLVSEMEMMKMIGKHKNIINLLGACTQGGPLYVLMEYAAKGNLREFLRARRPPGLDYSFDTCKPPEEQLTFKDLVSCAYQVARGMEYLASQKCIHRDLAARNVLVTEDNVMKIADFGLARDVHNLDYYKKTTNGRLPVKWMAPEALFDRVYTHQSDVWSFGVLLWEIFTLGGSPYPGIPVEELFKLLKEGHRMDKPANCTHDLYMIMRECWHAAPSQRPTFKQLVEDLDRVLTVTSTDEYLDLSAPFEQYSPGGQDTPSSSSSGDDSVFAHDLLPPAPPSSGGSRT
T6 sequence (P11362 22-822): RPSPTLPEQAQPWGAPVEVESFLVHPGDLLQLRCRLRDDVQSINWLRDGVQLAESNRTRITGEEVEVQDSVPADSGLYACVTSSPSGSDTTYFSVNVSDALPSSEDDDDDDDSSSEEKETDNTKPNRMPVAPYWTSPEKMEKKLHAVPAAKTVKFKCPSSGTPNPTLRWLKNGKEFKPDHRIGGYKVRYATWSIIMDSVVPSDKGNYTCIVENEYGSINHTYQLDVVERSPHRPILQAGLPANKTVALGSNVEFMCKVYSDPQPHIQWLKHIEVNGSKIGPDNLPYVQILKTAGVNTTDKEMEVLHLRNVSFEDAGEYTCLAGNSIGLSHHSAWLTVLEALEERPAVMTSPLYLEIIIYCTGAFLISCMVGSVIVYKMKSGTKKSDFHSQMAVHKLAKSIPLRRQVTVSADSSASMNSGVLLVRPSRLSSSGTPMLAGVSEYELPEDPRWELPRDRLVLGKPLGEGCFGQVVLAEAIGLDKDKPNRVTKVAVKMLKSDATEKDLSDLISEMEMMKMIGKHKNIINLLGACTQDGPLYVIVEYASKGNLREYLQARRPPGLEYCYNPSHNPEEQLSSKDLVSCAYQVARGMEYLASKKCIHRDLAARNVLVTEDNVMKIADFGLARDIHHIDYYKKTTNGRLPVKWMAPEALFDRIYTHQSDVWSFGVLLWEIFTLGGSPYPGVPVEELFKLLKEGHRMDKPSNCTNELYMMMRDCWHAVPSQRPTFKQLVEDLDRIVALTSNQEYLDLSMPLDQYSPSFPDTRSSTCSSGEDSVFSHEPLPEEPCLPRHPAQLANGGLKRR
T2 sequence (P21802 22-821 V564F): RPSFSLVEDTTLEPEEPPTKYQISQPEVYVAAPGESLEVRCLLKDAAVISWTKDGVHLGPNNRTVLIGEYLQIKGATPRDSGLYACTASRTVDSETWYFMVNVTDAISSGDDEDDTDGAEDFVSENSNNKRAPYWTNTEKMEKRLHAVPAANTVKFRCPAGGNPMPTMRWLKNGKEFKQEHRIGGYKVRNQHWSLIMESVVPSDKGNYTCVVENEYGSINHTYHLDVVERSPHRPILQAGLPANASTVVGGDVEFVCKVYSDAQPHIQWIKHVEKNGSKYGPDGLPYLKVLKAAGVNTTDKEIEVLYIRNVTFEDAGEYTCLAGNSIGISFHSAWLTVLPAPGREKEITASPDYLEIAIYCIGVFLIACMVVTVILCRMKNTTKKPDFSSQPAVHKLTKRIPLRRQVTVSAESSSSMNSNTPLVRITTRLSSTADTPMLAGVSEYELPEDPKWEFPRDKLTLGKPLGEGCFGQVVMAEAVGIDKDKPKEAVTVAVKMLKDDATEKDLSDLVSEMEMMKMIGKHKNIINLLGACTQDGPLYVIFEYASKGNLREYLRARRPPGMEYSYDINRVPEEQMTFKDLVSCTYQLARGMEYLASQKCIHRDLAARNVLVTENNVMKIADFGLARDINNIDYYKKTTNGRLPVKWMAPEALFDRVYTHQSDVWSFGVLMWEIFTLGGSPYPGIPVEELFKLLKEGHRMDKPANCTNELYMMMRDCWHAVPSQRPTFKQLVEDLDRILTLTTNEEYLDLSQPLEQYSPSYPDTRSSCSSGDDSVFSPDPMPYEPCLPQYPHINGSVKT
Chain of FGFR3 K650E (P22607 23-806 K650E): as the sequence (P22607 23-806 V555M) above, with M533V, K628E counted along it
T1 sequence (P11362 22-822 V561M): as the sequence (P11362 22-822) above, with V540M counted along it
T5 sequence (P21802 22-821): as the sequence (P21802 22-821 V564F) above, with F543V counted along it
T4 sequence (P35968 20-1356): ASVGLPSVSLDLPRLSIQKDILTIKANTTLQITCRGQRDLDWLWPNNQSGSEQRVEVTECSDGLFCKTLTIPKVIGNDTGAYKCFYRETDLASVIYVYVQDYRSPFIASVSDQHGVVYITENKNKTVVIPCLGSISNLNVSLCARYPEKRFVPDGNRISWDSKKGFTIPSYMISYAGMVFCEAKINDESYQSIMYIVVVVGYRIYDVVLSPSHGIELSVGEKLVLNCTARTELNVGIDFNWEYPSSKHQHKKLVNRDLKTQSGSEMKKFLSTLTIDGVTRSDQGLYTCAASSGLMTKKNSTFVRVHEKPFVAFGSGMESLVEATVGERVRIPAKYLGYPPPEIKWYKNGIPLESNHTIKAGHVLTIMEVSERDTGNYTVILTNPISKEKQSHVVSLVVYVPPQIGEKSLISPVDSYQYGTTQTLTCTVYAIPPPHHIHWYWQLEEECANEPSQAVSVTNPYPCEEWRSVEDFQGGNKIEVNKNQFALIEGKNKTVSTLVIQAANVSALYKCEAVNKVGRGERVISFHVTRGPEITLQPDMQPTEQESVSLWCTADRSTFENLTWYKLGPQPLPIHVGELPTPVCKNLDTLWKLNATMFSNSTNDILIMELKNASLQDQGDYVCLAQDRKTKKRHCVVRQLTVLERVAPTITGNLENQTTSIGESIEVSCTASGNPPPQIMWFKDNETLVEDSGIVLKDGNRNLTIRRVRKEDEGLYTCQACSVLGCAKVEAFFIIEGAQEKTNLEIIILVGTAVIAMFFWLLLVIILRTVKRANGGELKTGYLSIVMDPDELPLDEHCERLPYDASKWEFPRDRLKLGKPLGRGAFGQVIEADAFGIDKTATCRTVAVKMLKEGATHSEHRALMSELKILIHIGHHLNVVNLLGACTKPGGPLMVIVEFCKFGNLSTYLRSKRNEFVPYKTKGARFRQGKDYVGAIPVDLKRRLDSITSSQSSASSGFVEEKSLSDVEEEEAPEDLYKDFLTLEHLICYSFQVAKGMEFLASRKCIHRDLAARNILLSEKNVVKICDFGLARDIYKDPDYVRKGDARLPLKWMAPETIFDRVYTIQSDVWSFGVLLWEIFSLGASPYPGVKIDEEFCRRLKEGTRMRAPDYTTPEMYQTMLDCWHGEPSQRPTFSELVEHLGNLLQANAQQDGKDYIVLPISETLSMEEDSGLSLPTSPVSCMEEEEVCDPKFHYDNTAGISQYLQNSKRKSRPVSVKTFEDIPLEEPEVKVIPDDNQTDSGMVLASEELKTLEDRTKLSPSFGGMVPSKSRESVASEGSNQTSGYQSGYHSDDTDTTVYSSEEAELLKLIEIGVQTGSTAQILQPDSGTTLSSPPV
T7 sequence (P22607 23-806): as the sequence (P22607 23-806 V555M) above, with M533V counted along it

Row | IC50 (FGFR1 V561M) | IC50 (FGFR3 K650E) | IC50 (FGFR2 V564F) | IC50 (FGFR3 V555M) | IC50 (VEGFR2) | IC50 (FGFR2) | IC50 (FGFR1) | IC50 (FGFR3) | Structure (SMILES)
1 | 0.47 nM | – | 0.14 nM | 0.27 nM | 24.7 nM | 9.5 nM | 11.1 nM | 19.2 nM | CC(Oc1ccc2[nH]nc(C(=O)Nc3cnn(C4CCN(C)CC4)c3)c2c1)c1c(Cl)cncc1Cl (stereo not shown) [Compound 14, 5-(1-(3,5-dichloropyridin-4-yl)ethoxy)-N-(1-(1-methylpiperidin-4-yl)-1H-pyrazol-4-yl)-1H-indazole-3-carboxamide]
2 | 1.6 nM | – | 0.63 nM | 1.1 nM | 141 nM | – | – | – | CCN1CCC(c2ccc(NC(=O)c3n[nH]c4ccc(OC(C)c5c(Cl)cncc5Cl)cc34)cc2)CC1 (stereo not shown) [Compound 18, 5-(1-(3,5-dichloropyridin-4-yl)ethoxy)-N-(4-(1-ethylpiperidin-4-yl)phenyl)-1H-indazole-3-carboxamide]
3 | 22.8 nM | – | 34.1 nM | 41.7 nM | 1210 nM | – | – | – | CC(Oc1ccc2[nH]nc(C(=O)Nc3ccc(N4C[C@@H](C)N[C@@H](C)C4)cn3)c2c1)c1c(Cl)cncc1Cl (stereo partly drawn) [Compound 16, 5-(1-(3,5-dichloropyridin-4-yl)ethoxy)-N-(5-((3S, 5R)-3,5-dimethylpiperazin-1-yl)pyridin-2-yl)-1H-indazole-3-carboxamide]
4 | 0.91 nM | – | 0.6 nM | 0.79 nM | 179 nM | – | – | – | CC(Oc1ccc2[nH]nc(C(=O)Nc3cnn(CC4CCN(C)CC4)c3)c2c1)c1c(Cl)cncc1Cl (stereo not shown) [Compound 22]
5 | 9.1 nM | – | 0.82 nM | 0.88 nM | 327 nM | – | – | – | CCn1cc(NC(=O)c2n[nH]c3ccc(OC(C)c4c(Cl)cncc4Cl)cc23)cn1 (stereo not shown) [Compound 20, 5-(1-(3,5-dichloropyridin-4-yl)ethoxy)-N-(1-ethyl-1H-pyrazol-4-yl)-1H-indazole-3-carboxamide]
6 | 8.6 nM | – | 2.3 nM | 6.9 nM | 173 nM | – | – | – | CC(Oc1ccc2[nH]nc(C(=O)Nc3ccc(N4C[C@@H](C)N[C@@H](C)C4)c(F)c3)c2c1)c1c(Cl)cncc1Cl (stereo partly drawn) [Compound 17, 5-(1-(3,5-dichloropyridin-4-yl)ethoxy)-N-(4-((3S, 5R)-3,5-dimethylpiperazin-1-yl)-3-fluorophenyl)-1H-indazole-3-carboxamide]
7 | 1.9 nM | – | 0.48 nM | 0.74 nM | 208 nM | 24.5 nM | 45.1 nM | 42.9 nM | CC(Oc1ccc2[nH]nc(C(=O)Nc3cnn(C4CC(O)C4)c3)c2c1)c1c(Cl)cncc1Cl (stereo not shown) [Compound 12, 5-(1-(3,5-dichloropyridin-4-yl)ethoxy)-N-(1-(3-hydroxycyclobutyl)-1H-pyrazol-4-yl)-1H-indazole-3-carboxamide]

The next lines start with the compound.

Row | Structure (SMILES) | IC50 (FGFR1 V561M) | IC50 (FGFR3 K650E) | IC50 (FGFR2 V564F) | IC50 (FGFR3 V555M) | IC50 (VEGFR2) | IC50 (FGFR2) | IC50 (FGFR1) | IC50 (FGFR3)
8 | CC(Oc1ccc2[nH]nc(C(=O)Nc3cnn(CCO)c3)c2c1)c1c(Cl)cncc1Cl (stereo not shown) [Compound 2, 5-(1-(3,5-dichloropyridin-4-yl)ethoxy)-N-(1-(2-hydroxyethyl)-1H-pyrazol-4-yl)-1H-indazole-3-carboxamide] | 7 nM | 30 nM | 2 nM | 2.2 nM | 176 nM | – | – | –
9 | CC(Oc1ccc2[nH]nc(C(=O)Nc3ccc(N4C[C@@H](C)N[C@@H](C)C4)cc3)c2c1)c1c(Cl)cncc1Cl (stereo partly drawn) [Compound 1, 5-(1-(3,5-dichloropyridin-4-yl)ethoxy)-N-(4-((3S,5R)-3,5-dimethylpiperazin-1-yl)phenyl)-1H-indazole-3-carboxamide] | 6.3 nM | 26.8 nM | 2.3 nM | 8.6 nM | – | – | – | –
10 | CCN1CCN(c2ccc(NC(=O)c3n[nH]c4ccc(OC(C)c5c(Cl)cncc5Cl)cc34)cc2)CC1 (stereo not shown) [Compound 10, 5-(1-(3,5-dichloropyridin-4-yl)ethoxy)-N-(4-(4-ethylpiperazin-1-yl)phenyl)-1H-indazole-3-carboxamide] | 1.7 nM | – | 3.2 nM | 2 nM | 1390 nM | 48 nM | 64.5 nM | 98.8 nM
11 | C[C@@H](Oc1ccc2[nH]nc(C(=O)Nc3cnn(CCO)c3)c2c1)c1c(Cl)cncc1Cl [Compound 7, (R)-5-(1-(3,5-dichloropyridin-4-yl)ethoxy)-N-(1-(2-hydroxyethyl)-1H-pyrazol-4-yl)-1H-indazole-3-carboxamide] | 5.2 nM | – | 0.42 nM | 0.73 nM | 97.6 nM | 7.6 nM | 27.5 nM | 42.6 nM
12 | CC(Oc1ccc2[nH]nc(C(=O)Nc3cnn(C(C)CC#N)c3)c2c1)c1c(Cl)cncc1Cl (stereo not shown) [Compound 5, N-(1-(1-cyanopropan-2-yl)-1H-pyrazol-4-yl)-5-(1-(3,5-dichloropyridin-4-yl)ethoxy)-1H-indazole-3-carboxamide] | 7.2 nM | 33.4 nM | 2.4 nM | 4.6 nM | – | – | – | –
13 | CC(Oc1ccc2[nH]nc(C(=O)Nc3ccc(N4CCN(C)CC4)cc3)c2c1)c1c(Cl)cncc1Cl (stereo not shown) [Compound 9, 5-(1-(3,5-dichloropyridin-4-yl)ethoxy)-N-(4-(4-methylpiperazin-1-yl)phenyl)-1H-indazole-3-carboxamide] | 1 nM | – | 0.94 nM | 1.1 nM | 152 nM | 48.7 nM | 61 nM | 102 nM
14 | C[C@@H]1CN(c2ccc(NC(=O)c3n[nH]c4ccc(O[C@H](C)c5c(Cl)cncc5Cl)cc34)cc2)C[C@H](C)N1 [Compound 6, 5-((R)-1-(3,5-dichloropyridin-4-yl)ethoxy)-N-(4-((3S,5R)-3,5-dimethylpiperazin-1-yl)phenyl)-1H-indazole-3-carboxamide] | 2.3 nM | – | 0.66 nM | 0.94 nM | 84.1 nM | 21.3 nM | 27.7 nM | 52.2 nM
15 | CC(Oc1ccc2[nH]nc(C(=O)Nc3ccc(N4C[C@@H](C)N[C@@H](C)C4)nc3)c2c1)c1c(Cl)cncc1Cl (stereo partly drawn) [Compound 8, 5-(1-(3,5-dichloropyridin-4-yl)ethoxy)-N-(6-((3S, 5R)-3,5-dimethylpiperazin-1-yl)pyridin-3-yl)-1H-indazole-3-carboxamide] | 2.3 nM | – | 4 nM | 2.6 nM | 224 nM | 58.6 nM | 69.7 nM | 106 nM
